Where two headings read alike, the source gives them in different places.
System: ATF4 translation
Experiment: ATF4 Nano Luciferase reporter integrated stress response (ISR) assay in H4 ATF4-NLuc cells
Type: cell-based, human
Conditions: H4 ATF4-NLuc (clone 17) cells, compound 30 minutes, then sodium arsenite for 6 additional hours, luminescence readout
Source text: Cellular stress leads to activation of the integrated stress response pathway through one of four eukaryotic initiation factor 2a kinases and halts global translation, while allowing for the translation of select transcripts like ATF4 (activating transcription factor 4) that are important for the response to cellular stress. During normal conditions, small open reading frames (ORFs) in the 5′ UTR of ATF4 occupy the ribosome and prevent translation of the coding sequence of ATF4. During stress conditions however, the ribosome scans past these upstream ORFs and preferentially begins translation at the coding sequence of ATF4. In this way, the translation, and thus protein level of ATF4 is a readout of ISR pathway activation. Thus, a fusion of the uORFs and the beginning of the coding sequence of ATF to a common cellular reporter like nano-luciferase allows for a sensitive and high-throughput readout of ISR pathway activity.
Compounds as provided herein were tested in the following assay. The ATF4 Nano Luciferase reporter was constructed by fusing the human full length 5′ untranslated region (5′-UTR) and a small portion of the coding sequence of the ATF4 gene upstream of the Nano Luciferase (NLuc) coding sequence lacking it's start codon. Specifically, nucleotides +1 through +364 (relative to the transcriptional start site) of ATF4 transcript variant 2 (NCBI NM_182810.2) flanked 5′ by EcoRI and 3′ by BamHI restriction enzyme sites were synthesized and cloned into the EcoRI/BamHI cloning sites of pLVX-EF1a-IRES-Puro lentivirus vector (Clontech). Lentiviral particles were produced with Lenti-X single shots (VSV-G, Clontech) according to the manufacturer's instructions and used to transduce a human H4 neuroglioma cell line (ATCC HTB-148). H4 cells were selected with 1.25 μg/mL Puromycin, and clonal cell lines generated by limiting dilution. We utilized this cell line to generate an integrated stress response (ISR) assay to evaluate the activity of ISR pathway inhibitors via luminescence readout. The H4 ATF4-NLuc (clone 17) cell line is plated at a density of […] in 96-well or 384-well respectively in DMEM+[…]. 24-hours later test compounds diluted in dimethyl sulfoxide (DMSO) are added for 30 minutes at 37° C., followed by ISR pathway activation with […] sodium arsenite aqueous solution for 6 additional hours. Nano Glo luciferase reagent (N1150, Promega) is added according to manufacturer instructions and the luminescence signal (corresponding to the level of ATF4 translation and thus ISR pathway activation) is read with a standard plate reader with luminescence detection capabilities. […] In the tables below, activity of the tested compounds is provided, and in Table 3 as follows: […]; ++=IC50 1-10 μM; +=IC50>10 μM.

[1] = Homo sapiens, 0.5 h, read-out: Activity
[2] = Homo sapiens, 0.5 h, read-out: Biological Example 1 (ATF4 translation, IC50 nM)

Row | Compound | IC50 [1] | IC50 [2] | IC50 (read-out: Activity)
1 | O=C(COc1ccc(Cl)c(F)c1)N[C@@H]1CC[C@@H](c2nnc([C@H]3C[C@@H](OC(F)(F)F)C3)o2)OC1 [Example 1, 2-(4-chloro-3-fluoro-phenoxy)-N-[(3R,6S)-6-[5-[3-cis-(trifluoromethoxy)cyclobutyl]-1,3,4-oxadiazol-2-yl]tetrahydropyran-3-yl]acetamide] | < 1000 nM |  | 
2 | O=C(COc1ccc(Cl)cc1)N[C@@H]1CC[C@@H](c2nnc([C@H]3C[C@@H](OC(F)(F)F)C3)o2)OC1 [Example 2, 2-(4-chlorophenoxy)-N-[(3R,6S)-6-[5-[3-cis-(trifluoromethoxy)cyclobutyl]-1,3,4-oxadiazol-2-yl]tetrahydropyran-3-yl]acetamide] | < 1000 nM | 2.7 nM | 
3 | O=C(COC1CC(OC(F)(F)F)C1)N[C@@H]1CC[C@@H](c2nnc([C@H]3C[C@@H](OC(F)(F)F)C3)o2)OC1 (stereo partly drawn) [Example 3, 2-[3-cis-(trifluoromethoxy)cyclobutoxy]-N-[(3R,6S)-6-[5-[(cis)-3-(trifluoromethoxy)cyclobutyl]-1,3,4-oxadiazol-2-yl]tetrahydropyran-3-yl]acetamide] | < 1000 nM |  | 
4 | O=C(N[C@@H]1CC[C@@H](c2nnc([C@H]3C[C@@H](OC(F)(F)F)C3)o2)OC1)[C@H]1C[C@@H]1COC(F)(F)F [Example 4, (1R,2R)—N-[(3R,6S)-6-[5-[3-cis-(trifluoromethoxy)cyclobutyl]-1,3,4-oxadiazol-2-yl]tetrahydropyran-3-yl]-2-(trifluoromethoxymethyl)cyclopropanecarboxamide] | 1000 to 10000 nM |  | 
5 | O=C(COC1CC(OC(F)(F)F)C1)NC12CCC(c3nnc([C@H]4C[C@@H](OC(F)(F)F)C4)o3)(CC1)OC2 (stereo partly drawn) [Example 14, 2-[3-cis-(trifluoromethoxy)cyclobutoxy]-N-[1-[5-[3-cis-(trifluoromethoxy)cyclobutyl]-1,3,4-oxadiazol-2-yl]-2-oxabicyclo[2.2.2]octan-4-yl]acetamide] | < 1000 nM |  | 
6 | O=C(COC1CC(OC(F)(F)F)C1)N[C@@H]1CC[C@@H](c2cnn([C@H]3C[C@@H](OC(F)(F)F)C3)n2)OC1 (stereo partly drawn) [Example 17, 2-[3-cis-(trifluoromethoxy)cyclobutoxy]-N-[(3R,6S)-6-[2-[3-cis-(trifluoromethoxy)cyclobutyl]triazol-4-yl]tetrahydropyran-3-yl]acetamide] | < 1000 nM |  | 
7 | O=C(COC1CC(OC(F)(F)F)C1)NC1CC[C@@H](c2cn([C@H]3C[C@@H](OC(F)(F)F)C3)nn2)OC1 (stereo partly drawn) [Example 18, 2-[3-cis-(trifluoromethoxy)cyclobutoxy]-N-[(3R,6S)-6-[1-[3-cis-(trifluoromethoxy)cyclobutyl]triazol-4-yl]tetrahydropyran-3-yl]acetamide] | < 1000 nM |  | 
8 | O=C(COC1CC(OC(F)(F)F)C1)N[C@@H]1CC[C@@H](c2nnc(-c3ccc(Cl)c(F)c3)o2)OC1 (stereo partly drawn) [Example 19, N-[(3R,6S)-6-[5-(4-chloro-3-fluoro-phenyl)-1,3,4-oxadiazol-2-yl]tetrahydropyran-3-yl]-2-[3-cis-(trifluoromethoxy)cyclobutoxy]acetamide] | < 1000 nM | 29.5 nM | 
9 | O=C(COc1ccc(F)cc1)N[C@@H]1CC[C@@H](c2nnc(C3CC(OC(F)(F)F)C3)o2)OC1 (stereo partly drawn) [Example 20, 2-(4-fluorophenoxy)-N-[(3R,6S)-6-[5-[3-cis-(trifluoromethoxy)cyclobutyl]-1,3,4-oxadiazol-2-yl]tetrahydropyran-3-yl]acetamide] | < 1000 nM |  | 
10 | O=C(COc1ccc(Cl)c(F)c1)NC12CCC(c3nnc([C@H]4C[C@@H](OC(F)(F)F)C4)o3)(CC1)OC2 [Example 21, 2-(4-chloro-3-fluoro-phenoxy)-N-[1-[5-[3-cis-(trifluoromethoxy)cyclobutyl]-1,3,4-oxadiazol-2-yl]-2-oxabicyclo[2.2.2]octan-4-yl]acetamide] | < 1000 nM | 4 nM | 
11 | O=C(COc1ccc(F)cc1)NC12CCC(c3nnc([C@H]4C[C@@H](OC(F)(F)F)C4)o3)(CC1)OC2 [Example 22, 2-(4-fluorophenoxy)-N-[1-[5-[3-cis-(trifluoromethoxy)cyclobutyl]-1,3,4-oxadiazol-2-yl]-2-oxabicyclo[2.2.2]octan-4-yl]acetamide] | < 1000 nM |  | 

Next, values leading:

Row | IC50 [1] | IC50 [2] | IC50 (read-out: Activity) | Compound
12 | < 1000 nM | 3.9 nM |  | O=C(COc1ccc(Cl)cc1)N[C@@H]1CC[C@@H](C(O)COC2CC(OC(F)(F)F)C2)OC1 (single isomer, unassigned) [Example 63]
13 |  |  | < 1000 nM | O=C(COc1ccc(Cl)cc1)N[C@@H]1CC[C@@H](C(O)COC2CC(OC(F)(F)F)C2)OC1 (single isomer, unassigned) [Example 64]
14 | < 1000 nM | 8.5 nM |  | O=C(N[C@@H]1CC[C@@H](c2nnc(C3CC(OC(F)(F)F)C3)o2)OC1)[C@H]1CCc2cc(F)ccc2O1 (single isomer, unassigned) [Example 65]
15 | < 1000 nM |  |  | O=C(COc1ccc(Cl)c(F)c1)N[C@@H]1CC[C@@H](c2nnc(C3C[C@H]3COC(F)(F)F)o2)OC1 (single isomer, unassigned) [Example 69]
16 |  | 8 nM | < 1000 nM | O=C(COc1ccc(Cl)c(F)c1)N[C@@H]1CC[C@@H](c2nnc(C3C[C@H]3COC(F)(F)F)o2)OC1 (single isomer, unassigned) [Example 70]
17 | < 1000 nM |  |  | CC(O)(COC1CC(OC(F)(F)F)C1)[C@@H]1CC[C@@H](NC(=O)COc2ccc(Cl)cc2)CO1 (single isomer, unassigned) [Example 71]
18 |  |  | < 1000 nM | CC(O)(COC1CC(OC(F)(F)F)C1)[C@@H]1CC[C@@H](NC(=O)COc2ccc(Cl)cc2)CO1 (single isomer, unassigned) [Example 72]
19 | 1000 to 10000 nM |  |  | COC(=O)[C@@H]1CC[C@@H](NC(=O)COc2ccc(Cl)cc2)CO1 [Example 23, Methyl (2S,5R)-5-[[2-(4-chlorophenoxy)acetyl]amino]tetrahydropyran-2-carboxylate]
20 | < 1000 nM | 10.5 nM |  | O=C(COc1ccc(F)c(F)c1)N[C@@H]1CC[C@@H](c2nnc([C@H]3C[C@@H](OC(F)(F)F)C3)o2)OC1 [Example 24, 2-(3,4-difluorophenoxy)-N-((3R,6S)-6-(5-(3-cis-(trifluoromethoxy)cyclobutyl)-1,3,4-oxadiazol-2-yl)tetrahydro-2H-pyran-3-yl)acetamide]
21 | < 1000 nM |  |  | O=C(COc1ccc(F)c(F)c1)NC12CCC(c3nnc([C@H]4C[C@@H](OC(F)(F)F)C4)o3)(CC1)OC2 [Example 25, 2-(3,4-difluorophenoxy)-N-[1-[5-[3-cis-(trifluoromethoxy)cyclobutyl]-1,3,4-oxadiazol-2-yl]-2-oxabicyclo[2.2.2]octan-4-yl]acetamide]
22 | < 1000 nM | 2.2 nM |  | O=C(COc1ccc(Cl)cc1)NC12CCC(c3nnc([C@H]4C[C@@H](OC(F)(F)F)C4)o3)(CC1)OC2 [Example 26, 2-(4-chlorophenoxy)-N-[1-[5-[3-cis-(trifluoromethoxy)cyclobutyl]-1,3,4-oxadiazol-2-yl]-2-oxabicyclo[2.2.2]octan-4-yl]acetamide]
23 | < 1000 nM |  |  | O=C(COc1ccccc1)N[C@@H]1CC[C@@H](c2nnc([C@H]3C[C@@H](OC(F)(F)F)C3)o2)OC1 [Example 27, 2-phenoxy-N-[(3R,6S)-6-[5-[3-cis-(trifluoromethoxy)cyclobutyl]-1,3,4-oxadiazol-2-yl]tetrahydropyran-3-yl]acetamide]

Reference: patent publication US12139478B2, “Compounds, compositions and methods” (Denali Therapeutics Inc., priority 2017, dated 2024)
